Results reported in patent publication US6342485B1, “Synergistic compositions useful as anti-tumor agents” (priority 1999, dated 2002).
Like-named read-outs stand apart in the source and are kept apart here.

Legend:
[1] = cited from earlier work
[2] = test system: H630-10 human colorectal tumor cells; experiment: MTT assay; assay type: cell-based; settings: H630-10 cells, 24 h drug exposure
From the text: All culture media were supplemented with penicillin/streptomycin.

[3] = test system: H630-10 human colorectal tumor cells; experiment: Clonogenic assay; assay type: cell-based; settings: H630-10 cells, 72 h drug exposure
Method: (§1) About one thousand viable H630 or H630-10 cells suspended in 10 mL of RPMI 1640 medium with 9% NU serum IV were grown at 37° C. in a humidified 5% CO2-air atmosphere in 100×20 mm plastic petri dishes. After 48 h, the medium was removed, and replaced with 10 mL of fresh medium containing either 5-FU, FdUMP[10], or both 5-FU and FdUMP[10]. After 72 h, the medium containing drugs was removed and replaced by fresh medium. Plates were incubated for 2 to 3 weeks with fresh medium added, if necessary, after which the medium was removed, and the clones were identified by staining with 0.1% methylene blue in 70% ethanol aqueous solution. The number of surviving colonies was counted, and calculated as a percent of controls. Each study was repeated twice.

[4] = test system: H630 human colorectal tumor cells; experiment: Clonogenic assay; assay type: cell-based; settings: for IC50: Clonogenic assay, H630 cells, 72 h drug exposure
Method: as §1

[5] = test system: H630 human colorectal tumor cells; experiment: cells; settings: NCI-H630, 24 h
Method: (§2) The antiproliferative activities of FdUMP[10] and 5-FU for the human colorectal tumor cell lines H630 and H630-10 were compared using an assay for 3-(4,5-dimethylthiazol-2-yl)-2,5-diphenyltetrazolium bromide (MTT). H630 and H630-10 cells were cultured using RPMI 1640 containing L-glutamine and supplemented with 10% Nu-serum IV. All culture media were supplemented with penicillin/streptomycin. 25,000 cells were plated (96 well flute-bottom plate) in 200 μL of medium at 37° C. overnight in an air atmosphere containing 5% CO2. The medium was replaced the next day, and cells were exposed to the drugs for 24 h. The medium was then removed from the plates and replaced with 100 μL of fresh medium and 25 μL of MTT solution (5 μg/μL in PBS) per well. Following 2 h incubation, 100)L of MTT solvent (20% w/v SDS dissolved in DMF:H2O [1:1], pH 4.7) was added to each well and the plates were incubated overnight (Senderoff et al., 1990). The plates were analyzed the following morning on a Titerek Multiscan Plus 96-well plate analyzer (v.1.4). The number of viable cells in each well containing cells treated with drug was calculated from the absorbance at 570 nm compared to untreated controls. The means and standard deviation at each concentration for each drug were calculated using standard statistical methods. MTT assays were run in duplicate or triplicate to assure the statistical significance of the results.

cells = experiment: Preliminary rescue experiments on the mechanism of cytotoxicity; assay type: cell-based
H630 cells = experiment: TUNEL assay for induction of apoptosis; assay type: cell-based, human; settings: TUNEL staining, H630 cells exposed for 72 h, data not shown
Method: About one million H630 cells were seeded into each of the T-75 cell culture flasks. Two days later, after two doubling times, the cells were exposed to FdUMP[10]. The cells were exposed to FdUMP[10] for 72 h, and then fixed with 1% methanol-free formaldehyde for 20 min at 0° C. The fixed-cells were then placed in a 70% ethanol solution at −20° C. for two weeks. The ethanol was then removed, and the cells were washed with PBS and incubated with TdT buffer (Promega), containing equilibration buffer, nucleotide mixture and TdT enzyme, at 37° C. for 1 hour. The reaction was terminated by addition of EDTA solution and the incubation buffer was then removed. The cells were then treated with 0.1% Triton, followed by propidium iodide containing DNase-free RNAse. The cells were kept at room temperature for 30 min, and then analyzed by flow cytometry.

[6] = test system: H630 human colorectal tumor cells
Method: as §2

O=c1[nH]cc(F)c(=O)[nH]1 [5-FU, 5-fluorouracil, reference compound]
half-life in-vivo [1]: about 18 minutes
IC50 ([2]; Homo sapiens): 27100 nM
IC50 ([3]; Homo sapiens): 75000 nM
IC50 ([4]; Homo sapiens, NCI-H630): 3900 nM
IC50 [5]: 4870 nM

FdUMP[10]
IC50 [2]: 99.5 nM
IC50 [3]: 71 nM
IC50 [4]: 250 nM
effect on the growth of H630 cells as single agent ([4]; FdUMP[10] alone at 4.0×10^−8 and 6.0×10^−8 M): no significant effect
rescue of cells from FdUMP[10] by deoxythymidine (cells): does not rescue
reversal of the effects of FdUMP[10] by uridine (cells): partially reverse
cells undergoing apoptosis (H630 cells): ~100%
efficiency of FdUMP[10] relative to 5-FU [6]: about 400 times
IC50 ([6]; MTT assay, H630 cells, 24 h drug exposure): 16.9 nM
